Source: patent US12319708B2, “Agonists of peroxisome proliferator-activated receptor alpha (PPARα) and methods of use” (The Board of Regents of the University of Oklahoma, priority 2018, dated 2025)
Where two headings read alike, the source gives them in different places.

Target: T1, hPPARα (Homo sapiens, UniProt Q07869)
T1 sequence (Q07869 1-468): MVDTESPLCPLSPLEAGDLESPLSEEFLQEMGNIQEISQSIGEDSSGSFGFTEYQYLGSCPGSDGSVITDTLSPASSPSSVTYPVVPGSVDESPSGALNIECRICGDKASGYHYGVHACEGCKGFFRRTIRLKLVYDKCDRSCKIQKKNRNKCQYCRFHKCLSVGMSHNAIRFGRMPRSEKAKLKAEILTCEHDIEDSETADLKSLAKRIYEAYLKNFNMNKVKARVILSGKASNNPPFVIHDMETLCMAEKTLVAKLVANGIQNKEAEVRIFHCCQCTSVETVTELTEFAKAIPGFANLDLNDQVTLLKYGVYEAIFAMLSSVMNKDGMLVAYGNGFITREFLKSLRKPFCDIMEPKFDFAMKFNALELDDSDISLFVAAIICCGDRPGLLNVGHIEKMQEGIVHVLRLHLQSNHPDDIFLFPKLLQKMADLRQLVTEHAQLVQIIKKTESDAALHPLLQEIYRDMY
Assay: PPARα luciferase cell reporter assay (Indigo Biosciences)
Assay type: cell-based
Conditions: for ratio (5/50): ratio of relative light unit (RLU) signal at 5 and 50 μM: 5 and 50 μM compound concentrations; for fold-signal: ratio of maximal signal strength to that obtained with GW590735: relative to GW590735
From the text: With the focused subset of analogs in-hand, our efforts shifted to the evaluation of these derivatives for PPARα agonism. Preliminary evaluation utilized a commercially available PPARα luciferase cell reporter assay (Indigo Biosciences). The cell-line employed is engineered to constitutively express high-levels of hPPARα. Upon interaction with an agonist, hPPARα translocates to the nucleus, binds to the PPRE, and upregulates gene transcription, including the inserted luciferase gene. Luciferase activity is detected indirectly through quantification of oxyluciferin production.

[1] = mean ± SEM of at least two separate experiments in triplicate (Table 9), read-out: EC50 hPPARα
[2] = structure IIa compounds (Table 6)
[3] = Table 6, cellular luciferase activity, read-out: α EC50
[4] = structure IIb compounds (Table 8)

Fold (5 μM): fold increase in luciferase compared to DMSO negative control [2] [fold] | Fold (50 μM): fold increase in luciferase compared to DMSO negative control [2] [fold] | Compound | further results
– | – | Cc1cc(CNc2cccc(C(=O)O)c2)ccc1OCc1cc(F)cc(F)c1 [25′] | ratio (5/50): ratio of relative light unit (RLU) signal at 5 and 50 μM: 1.1; fold-signal: ratio of maximal signal strength to that obtained with GW590735: 1.6
– | – | O=C(O)c1cccc(NCc2ccc(OCc3ccc(F)cc3)c(F)c2)c1 [26′] | ratio (5/50): ratio of relative light unit (RLU) signal at 5 and 50 μM: 0.7; fold-signal: ratio of maximal signal strength to that obtained with GW590735: 1.7
– | – | O=C(O)c1cccc(NCc2ccc(OCc3ccc(F)cc3)c(Cl)c2)c1 [27′] | ratio (5/50): ratio of relative light unit (RLU) signal at 5 and 50 μM: 1.1; fold-signal: ratio of maximal signal strength to that obtained with GW590735: 1.5
– | – | Cc1cc(CN(C)c2cccc(C(=O)O)c2)ccc1OCc1ccc(F)cc1 [30′] | ratio (5/50): ratio of relative light unit (RLU) signal at 5 and 50 μM: 0.8; EC50 [1]: 67 ± 10 nM; fold-signal: ratio of maximal signal strength to that obtained with GW590735: 2.1
– | – | O=C(O)c1cc(F)cc(NCc2ccc(OCc3ccc(F)cc3)c(Cl)c2)c1 [32′] | ratio (5/50): ratio of relative light unit (RLU) signal at 5 and 50 μM: 1.1; EC50 [1]: 52 ± 11 nM; fold-signal: ratio of maximal signal strength to that obtained with GW590735: 1.8
1 | 1 | COc1ccc(COc2ccc(CNc3cccc(B(O)O)c3)cc2)cc1 [Compound 110] | –
1 | 46 | CC(C)(Oc1cccc(NCc2ccc(OCc3ccccc3)cc2)c1)C(=O)O [Compound 116] | –
18 | 35 | O=C(O)c1cccc(NCc2ccc(OCc3ccccc3)cc2)c1 [Compound 117] | –
1 | 37 | O=C(O)c1cccc(NCc2ccc(OCc3ccc(Cl)cc3Cl)cc2)c1 [Compound 118] | –
9 | 35 | O=C(O)c1cccc(NCc2ccc(OCc3cc(F)cc(F)c3)cc2)c1 [Compound 119] | –
16 | 35 | O=C(O)c1cccc(NCc2ccc(OCc3ccc([N+](=O)[O-])cc3)cc2)c1 [Compound 120] | –
16 | 42 | CC(C)(Oc1cccc(NCc2ccc(OCc3cc(F)cc(F)c3)cc2)c1)C(=O)O [Compound 121] | –
17 | 36 | O=C(O)c1cccc(NCc2ccc(OCc3ccc(Cl)cc3)cc2)c1 [Compound 122] | –
2 | 55 | CC(C)(Oc1cccc(NCc2ccc(OCc3ccc(Cl)cc3)cc2)c1)C(=O)O [Compound 123] | –
81 | 100 | O=C(O)c1cccc(NCc2ccc(OCc3ccc(C(F)(F)F)cc3)cc2)c1 [Compound 126] | EC50 [3]: 800 nM
11 | 150 | CC(C)(Oc1cccc(NCc2ccc(OCc3ccc(F)cc3)cc2)c1)C(=O)O [Compound 127] | –
19 | 106 | CC(C)(Oc1cccc(NCc2ccc(OCc3ccc(C(F)(F)F)cc3)cc2)c1)C(=O)O [Compound 128] | –
2 | 112 | O=C(O)COc1cccc(NCc2ccc(OCc3ccc(C(F)(F)F)cc3)cc2)c1 [Compound 129] | –
2 | 43 | COc1ccc(COc2ccc(CNc3cccc(OCC(=O)O)c3)cc2)cc1 [Compound 130] | EC50 [3]: 29200 nM
1 | 0 | O=C(O)c1cccc(NCCc2ccc(OCCc3ccccc3)cc2)c1 [Compound 133] | –
3 | 9 | COc1ccc(COc2ccc(CNc3cccc(C(=O)NO)c3)cc2)cc1 [Compound 134] | –

Fold (5 μM): fold increase in luciferase compared to DMSO negative control [2] [fold] | Fold (50 μM): fold increase in luciferase compared to DMSO negative control [2] [fold] | Compound | further results
3 | 5 | CS(=O)(=O)Nc1cccc(NCc2ccc(OCc3ccc(F)cc3)cc2)c1 [Compound 145] | –
34 | 53 | O=C(NO)c1cccc(NCc2ccc(OCc3ccc(F)cc3)cc2)c1 [Compound 146] | –
3 | 3 | NS(=O)(=O)c1cccc(NCc2ccc(OCc3ccc(F)cc3)cc2)c1 [Compound 147] | –
73 | 85 | Fc1ccc(COc2ccc(CNc3cccc(-c4nnn[nH]4)c3)cc2)cc1 [Compound 148] | EC50 [3]: 5700 nM
102 | 109 | CN(Cc1ccc(OCc2ccc(F)cc2)cc1)c1cccc(C(=O)O)c1 [Compound 151] | EC50 [3]: 1000 nM
94 | 120 | CN(Cc1ccc(OCc2ccc(F)cc2)cc1)c1cccc(OC(C)(C)C(=O)O)c1 [Compound 153] | EC50 [3]: 1700 nM
3 | 2 | OB(O)c1cccc(NCc2ccc(OCc3ccc(F)cc3)cc2)c1 [Compound 154] | –
– | – | O=C(O)c1ccc(NCc2ccc(OCc3ccc(C(F)(F)F)cc3)cc2)cc1 [Compound 155] | Fold (5 μM): fold increase in luciferase compared to DMSO negative control [4]: 4 fold; Fold (50 μM): fold increase in luciferase compared to DMSO negative control [4]: 8 fold
– | – | COc1ccc(COc2ccc(CNc3ccc(C(=O)O)cc3)cc2)cc1 [Compound 162] | Fold (5 μM): fold increase in luciferase compared to DMSO negative control [4]: 4 fold; Fold (50 μM): fold increase in luciferase compared to DMSO negative control [4]: 29 fold
18 | 93 | O=C(O)c1cc(Cl)cc(NCc2ccc(OCc3ccc(F)cc3)cc2)c1 [Compound 168] | –
– | – | CC(C)(Oc1ccc(NCc2ccc(OCc3ccc(F)cc3)cc2)cc1)C(=O)O [Compound 182] | Fold (5 μM): fold increase in luciferase compared to DMSO negative control [4]: 40 fold; Fold (50 μM): fold increase in luciferase compared to DMSO negative control [4]: 74 fold
– | – | O=C(O)c1ccc(NCc2ccc(OCc3ccc(F)cc3)cc2)cc1 [Compound 183] | Fold (5 μM): fold increase in luciferase compared to DMSO negative control [4]: 4 fold; Fold (50 μM): fold increase in luciferase compared to DMSO negative control [4]: 14 fold
59 | 69 | O=C(O)c1cc(Br)cc(NCc2ccc(OCc3ccc(F)cc3)cc2)c1 [Compound 184] | EC50 [3]: 900 nM
61 | 66 | O=C(O)c1cc(F)cc(NCc2ccc(OCc3ccc(F)cc3)cc2)c1 [Compound 185] | EC50 [3]: 700 nM
1 | 0 | COc1ccc(CCOc2ccc(CCNc3cccc(C(=O)O)c3)cc2)cc1 [Compound 187] | –
10 | 45 | CC(C)(Sc1cccc(NCc2ccc(OCc3ccc(F)cc3)cc2)c1)C(=O)O [Compound 188] | –
39 | 37 | O=C(O)c1cccc(NCc2ccc(OCc3ccc(I)cc3)cc2)c1 [Compound 189] | EC50 [3]: 1200 nM
42 | 61 | N#Cc1ccc(COc2ccc(CNc3cccc(C(=O)O)c3)cc2)cc1 [Compound 191] | –
53 | 58 | O=C(O)c1cccc(NCc2ccc(OCc3ccc(Br)cc3)cc2)c1 [Compound 192] | EC50 [3]: 800 nM
73 | 56 | O=C(O)c1cccc(NCc2ccc(OCc3cccc(F)c3)cc2)c1 [Compound 193] | EC50 [3]: 1100 nM

Compound | Fold (5 μM): fold increase in luciferase compared to DMSO negative control [2] [fold] | Fold (50 μM): fold increase in luciferase compared to DMSO negative control [2] [fold] | further results
O=C(O)c1cccc(NCc2ccc(OCc3ccc(F)cc3F)cc2)c1 [Compound 194] | 51 | 49 | EC50: 400 nM
